This is an account of results in publication PMC10458055, “Monocarboxylate Transporter 13 (MCT13/SLC16A13) Functions as a Novel Plasma Membrane Oligopeptide Transporter” (Nutrients, 2023).

The target of series [1] is T1, MCT13 (SLC16A13), untagged, co-expressed with CD147 (Homo sapiens, UniProt Q7RTY0).
T1 construct: untagged full-length MCT13, transiently co-transfected with CD147 in HEK293T cells; with Basigin
T1 sequence (Q7RTY0 1-426): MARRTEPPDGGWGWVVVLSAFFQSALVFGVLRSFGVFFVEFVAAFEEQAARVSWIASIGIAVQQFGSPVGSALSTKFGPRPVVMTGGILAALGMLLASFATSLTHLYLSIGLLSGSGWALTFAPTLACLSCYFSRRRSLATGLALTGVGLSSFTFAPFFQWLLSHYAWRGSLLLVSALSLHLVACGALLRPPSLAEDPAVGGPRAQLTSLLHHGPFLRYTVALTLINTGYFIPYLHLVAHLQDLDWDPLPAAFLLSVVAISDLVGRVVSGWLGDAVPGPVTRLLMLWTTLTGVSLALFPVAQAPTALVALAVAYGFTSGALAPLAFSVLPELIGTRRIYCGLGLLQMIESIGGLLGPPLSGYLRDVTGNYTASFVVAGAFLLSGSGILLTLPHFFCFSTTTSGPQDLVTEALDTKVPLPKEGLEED
T1 sequence (P35613 22-385 partner): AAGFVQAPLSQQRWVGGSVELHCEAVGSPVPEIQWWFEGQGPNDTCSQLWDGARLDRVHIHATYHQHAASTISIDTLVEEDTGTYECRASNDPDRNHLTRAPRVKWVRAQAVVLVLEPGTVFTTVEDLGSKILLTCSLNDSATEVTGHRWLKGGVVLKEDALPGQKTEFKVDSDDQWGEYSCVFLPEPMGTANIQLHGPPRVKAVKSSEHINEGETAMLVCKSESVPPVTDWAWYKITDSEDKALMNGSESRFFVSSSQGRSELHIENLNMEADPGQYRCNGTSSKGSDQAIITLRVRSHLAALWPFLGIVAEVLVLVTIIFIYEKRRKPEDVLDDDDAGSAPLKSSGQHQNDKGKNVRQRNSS
As to the kind of experiment: inhibition of cephradine uptake in transfected HEK293T cells, LC-MS/MS. The note with it: HEK-293T; read-out: % inhibition at 10 mM. Type of series: cell-based.

Series [2] addresses T1, MCT13 (SLC16A13), untagged, co-expressed with CD147. The series is described as above. Format: cell-based. The note with it: 1 mM cephradine, KCl buffer, 5 min, mock subtracted.
For series [3] the target is unchanged. The series is described as above. Particulars: 1 mM cephradine, KCl buffer with 1% DMSO, 5 min, mock subtracted. Type of series: cell-based.
Substrate in series [4]: CC1=C(C(=O)O)N2C(=O)[C@@H](NC(=O)[C@H](N)C3=CCC=CC3)[C@H]2SC1
As to the kind of experiment: uptake in transfected HEK293T cells, LC-MS/MS. Format: cell-based, Homo sapiens.

As a reminder, the inhibition is how much of the control response was suppressed. In the case of `Cc1nnc(SCC2=C(C(=O)O)N3C(=O)[C@@H](NC(=O)Cn4cnnn4)[C@H]3SC2)s1` [Cephazolin], the inhibition at 10000 µM in series [1] is 43%.
Consider `CCCN(CCC)S(=O)(=O)c1ccc(C(=O)O)cc1` [Probenecid], for which the “% of control at 10 mM” value in series [2] was “Probenecid and rifampicin, which are typical inhibitors of organic anion transporters”.
In the case of `N[C@@H](CCC(=O)N[C@@H](CS)C(=O)NCC(=O)O)C(=O)O` [glutathione], the inhibition at 10000 µM in series [1] worked out at 30%.
On to `CO[C@H]1/C=C/O[C@@]2(C)Oc3c(C)c(O)c4c(O)c(c(/C=N/N5CCN(C)CC5)c(O)c4c3C2=O)NC(=O)/C(C)=C\C=C\[C@H](C)[C@H](O)[C@@H](C)[C@@H](O)[C@@H](C)[C@H](OC(C)=O)[C@@H]1C` [rifampicin], for which the “% of control at 50 uM” value in series [3] is “Probenecid and rifampicin, which are typical inhibitors of organic anion transporters”.

B1: MCT13 (SLC16A13), untagged, co-expressed with CD147 (Homo sapiens) (protein)
chain: T1 sequence (Q7RTY0 1-426)
notes: untagged full-length MCT13, transiently co-transfected with CD147 in HEK293T cells; with Basigin
Usually Km stands for the concentration of substrate that gives half-maximal velocity. In the case of B1, the Michaelis constant (Km) in series [4] (KCl buffer, 0.1-30 mM cephradine, co-expressed CD147) was determined as 2.83 ± 0.63 mM.

B2: EGFP-tagged MCT13 (with CD147) (Homo sapiens) (protein)
chain: T1 sequence (Q7RTY0 1-426)
notes: EGFP-tagged (pEGFP-C1) full-length MCT13, co-transfected with CD147 in HEK293T cells; with Basigin
For B2, the Km in series [4] (EGFP-tagged MCT13) turned out to be 3.95 ± 0.53 mM.
